The supplement of paper PMC11451515

Test system: P12-Ichikawa
Experiment: cell viability relative to DMSO control; higher = less cytotoxic
Settings: 48 h
Procedure, shortened: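 Viability values are per-plate percentages of DMSO wells, with background from cell-free wells. Library compounds in DMSO were pin-dosed, in an 11-point threefold series from 47 μM to 0.79 nM, onto NOMO1 or SEM (500 cells/well) or P12-Ichikawa (1000 cells/well) leukemia cells in 1536-well plates (5 μl). Those cells had been adapted for at least four passages in each medium, and CellTiter-Glo One luminescence was read after 48 h at 37°C.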

[1] = HPLM + 10% dialyzed FBS, 0.000781 µM
[2] = HPLM + 10% dialyzed FBS, 0.00234 µM
[3] = HPLM + 10% dialyzed FBS, 0.00702 µM
[4] = HPLM + 10% dialyzed FBS, 0.0211 µM
[5] = HPLM + 10% dialyzed FBS, 0.0632 µM
[6] = HPLM + 10% dialyzed FBS, 0.19 µM
[7] = HPLM + 10% dialyzed FBS, 0.569 µM
[8] = HPLM + 10% dialyzed FBS, 1.71 µM
[9] = HPLM + 10% dialyzed FBS, 5.12 µM
[10] = HPLM + 10% dialyzed FBS, 15.4 µM
[11] = HPLM + 10% dialyzed FBS, 46.1 µM
[12] = RPMI 5 mM glucose + 10% FBS, 0.000781 µM
[13] = RPMI 5 mM glucose + 10% FBS, 0.00234 µM
[14] = RPMI 5 mM glucose + 10% FBS, 0.00702 µM
[15] = RPMI 5 mM glucose + 10% FBS, 0.0211 µM
[16] = RPMI 5 mM glucose + 10% FBS, 0.0632 µM
[17] = RPMI 5 mM glucose + 10% FBS, 0.19 µM
[18] = RPMI 5 mM glucose + 10% FBS, 0.569 µM
[19] = RPMI 5 mM glucose + 10% FBS, 1.71 µM
[20] = RPMI 5 mM glucose + 10% FBS, 5.12 µM
[21] = RPMI 5 mM glucose + 10% FBS, 15.4 µM
[22] = RPMI 5 mM glucose + 10% FBS, 46.1 µM
[23] = RPMI 5 mM glucose + 10% dialyzed FBS, 0.000781 µM
[24] = RPMI 5 mM glucose + 10% dialyzed FBS, 0.00234 µM
[25] = RPMI 5 mM glucose + 10% dialyzed FBS, 0.00702 µM
[26] = RPMI 5 mM glucose + 10% dialyzed FBS, 0.0211 µM
[27] = RPMI 5 mM glucose + 10% dialyzed FBS, 0.0632 µM
[28] = RPMI 5 mM glucose + 10% dialyzed FBS, 0.19 µM
[29] = RPMI 5 mM glucose + 10% dialyzed FBS, 0.569 µM
[30] = RPMI 5 mM glucose + 10% dialyzed FBS, 1.71 µM
[31] = RPMI 5 mM glucose + 10% dialyzed FBS, 5.12 µM
[32] = RPMI 5 mM glucose + 10% dialyzed FBS, 15.4 µM
[33] = RPMI 5 mM glucose + 10% dialyzed FBS, 46.1 µM

SMILES | cell viability [1] [%] | cell viability [2] [%] | cell viability [3] [%] | cell viability [4] [%] | cell viability [5] [%] | cell viability [6] [%] | cell viability [7] [%] | cell viability [8] [%] | cell viability [9] [%] | cell viability [10] [%] | cell viability [11] [%] | cell viability [12] [%] | cell viability [13] [%] | cell viability [14] [%] | cell viability [15] [%] | cell viability [16] [%] | cell viability [17] [%] | cell viability [18] [%] | cell viability [19] [%] | cell viability [20] [%] | cell viability [21] [%] | cell viability [22] [%] | cell viability [23] [%] | cell viability [24] [%] | cell viability [25] [%] | cell viability [26] [%] | cell viability [27] [%] | cell viability [28] [%] | cell viability [29] [%] | cell viability [30] [%] | cell viability [31] [%] | cell viability [32] [%] | cell viability [33] [%]
N#C[C@H](O[C@@H]1O[C@H](CO[C@@H]2O[C@H](CO)[C@@H](O)[C@H](O)[C@H]2O)[C@@H](O)[C@H](O)[C@H]1O)c1ccccc1 | 110 | 106 | 108 | 102 | 103 | 96.6 | 99.5 | 97.7 | 90.8 | 91.7 | 55.4 | 99.5 | 98.5 | 92.5 | 97.5 | 104 | 99.5 | 94.2 | 88.4 | 89.9 | 94.5 | 48.5 | 98.6 | 96.2 | 95.6 | 101 | 97.6 | 86.1 | 90.6 | 89 | 82.9 | 87.3 | 31.8
CN(C)C(=O)C(CCN1CCC(O)(c2ccc(Cl)cc2)CC1)(c1ccccc1)c1ccccc1 | 122 | 123 | 133 | 122 | 129 | 125 | 127 | 116 | 127 | 107 | 69.2 |  |  |  |  |  |  |  |  |  |  |  |  |  |  |  |  |  |  |  |  |  | 
NC(=O)c1ncn([C@@H]2O[C@H](CO)[C@@H](O)[C@H]2O)c1O |  |  |  |  |  |  |  |  |  |  |  | 129 | 123 | 119 | 130 | 124 | 126 | 133 | 123 | 111 | 117 | 108 | 118 | 126 | 113 | 123 | 122 | 121 | 123 | 122 | 109 | 110 | 104
N#C/C(C(=O)c1ccc(Cl)cc1Cl)=C1/NC(=O)c2ccc(Cl)cc2N1 | 114 | 123 | 108 | 115 | 111 | 111 | 110 | 106 | 103 | 107 | 107 | 115 | 119 | 117 | 107 | 106 | 111 | 107 | 103 | 105 | 105 | 94.2 | 106 | 106 | 107 | 110 | 112 | 98.9 | 107 | 104 | 97.8 | 101 | 98.3
CCOC1=CC=CC=C1N\2C(=O)C3=C(C=CC=C3)\N=C2C(C)N4CCN(CC4)C(=O)COC5=CC=C(Cl)C=C5 (stereo not given) | 121 | 120 | 116 | 115 | 107 | 111 | 72.3 | 15.9 | 8.63 | 6.31 | 4.74 | 121 | 126 | 119 | 110 | 117 | 111 | 94.4 | 51.8 | 9.87 | 5.31 | 4.69 |  |  |  |  |  |  |  |  |  |  | 
CCOC(=O)Nc1ccc(NCc2ccc(F)cc2)nc1N | 114 | 114 | 110 | 113 | 120 | 117 | 109 | 105 | 96.5 | 94.6 | 107 | 107 | 116 | 116 | 125 | 118 | 111 | 110 | 102 | 91 | 108 | 99.8 | 115 | 101 | 101 | 104 | 111 | 111 | 112 | 103 | 104 | 101 | 100
N[S+](=O)([O-])OC[C@@H]1C[C@@H](n2ccc3c(N[C@H]4CCc5ccccc54)ncnc32)C[C@@H]1O | 95.1 | 102 | 110 | 102 | 113 | 118 | 116 | 82.2 | 38.3 | 16.1 | 12.7 | 107 | 105 | 107 | 126 | 108 | 120 | 116 | 61.5 | 31.2 | 9.99 | 8.16 | 97.4 | 111 | 106 | 110 | 98.2 | 106 | 100 | 54.1 | 34.4 | 12.3 | 11.2
O=C(Nc1cccnn1)N1CCC(=Cc2cccc(Oc3ccc(C(F)(F)F)cn3)c2)CC1 | 92.9 | 94.1 | 91.4 | 11.9 | 106 | 103 | 101 | 101 | 102 | 94.4 | 87.4 | 85 | 86.8 | 96 | 12.6 | 101 | 103 | 99.7 | 103 | 95.7 | 80.3 | 76.8 | 92 | 93.9 | 101 | 47.1 | 110 | 100 | 102 | 105 | 101 | 90.3 | 81.5
